# Experimental data reported in publication PMC3913620, “Preclinical Evaluation of the Novel, Orally Bioavailable Selective Inhibitor of Nuclear Export (SINE) KPT-335 in Spontaneous Canine Cancer: Results of a Phase I Study” (PLoS ONE, 2014).
# Like-named read-outs stand apart in the source and are kept apart here.
# Key:
# [1] = system: Jurkat cells; test: MTS cell viability assay, Jurkat; type: cell-based, human; conditions: 72 hours, read-out: IC50 (± S.D.), Jurkat
# Description: Cryopreserved tumor cells obtained from sterile lymph node biopsy samples from dogs with diffuse large B cell lymphoma (DLBCL) were cultured with 100 ng/mL of megaCD40L (Enzo Life Science, Plymouth Meeting, PA) as previously described, [27]. The human T-cell leukemia cell line, Jurkat, was from the American Type Culture Collection (ATCC, Manassas, VA) and cultured in RPMI1640 medium (Gibco/BRL, Grand Island, NY) containing 10% fetal bovine serum (FBS; Atlas Biologicals, Fort Collins, CO), 2-mercaptoethanol (Gibco/BRL), HEPES, L-glutamine, sodium pyruvate (Mediatech Inc., Manassas, VA), non-essential amino acids (Sigma Aldrich, St. Louis, MO), and Primocin (Invivogen, San Diego, CA). The canine DLBCL cell line CLBL1 obtained from Dr. Barbara Rütgen (University of Vienna, Austria), [29] and human DLBCL cell lines OCI-Ly3 [30], [31] and OCI-Ly10 [32] obtained from Dr. Anne Novak (Mayo Clinic Cancer Center, Rochester, MN) were cultured in complete Iscove’s Modified Dulbecco’s medium (IMDM) containing 20% FBS, L-glutamine, and Primocin. All cells were maintained at 37°C in a humidified 5% CO2 atmosphere. The following additional canine tumor cell lines were used to evaluate response to SINE compounds: C2, mast cell tumor line provided by Dr. George Caughey, UCSF, San Francisco, CA [33]; OSA16, osteosarcoma cell line, provided by Dr. Jaime Modiano, UM, Minneapolis, MN [34]; and 323610-3, malignant melanoma cell line, provided by Dr. Michael Kent, UCD, Davis, CA [35]. […]
# (§1) Cell viability for lymphoid lines was determined by the MTS (3-(4, 5-dimethylthiazol-2-yl)-5-(3-carboxymethoxyphenyl)-2-(4-sulfophenyl)-2H-tetrazolium) assay using CellTiter 96® AQueous One Solution Cell Proliferation Assay Kit (Promega, Madison, WI). […] After 72 hours, 20 µL of MTS solution was added to each well and cells were incubated for another 4 hours before measuring absorbance at 490 nm using a Wallac Victor 1420 Multilabel Counter (Perkin Elmer, Waltham, MA). The IC50 of SINE was calculated using Prism 6 software (GraphPad Software, Inc., La Jolla, CA).
# [2] = system: primary canine DLBCL cells; test: MTS cell viability assay, primary canine DLBCL samples; type: cell-based
# Description: Cryopreserved tumor cells obtained from sterile lymph node biopsy samples from dogs with diffuse large B cell lymphoma (DLBCL) were cultured with 100 ng/mL of megaCD40L (Enzo Life Science, Plymouth Meeting, PA) as previously described, [27]. The human T-cell leukemia cell line, Jurkat, was from the American Type Culture Collection (ATCC, Manassas, VA) and cultured in RPMI1640 medium (Gibco/BRL, Grand Island, NY) containing 10% fetal bovine serum (FBS; Atlas Biologicals, Fort Collins, CO), 2-mercaptoethanol (Gibco/BRL), HEPES, L-glutamine, sodium pyruvate (Mediatech Inc., Manassas, VA), non-essential amino acids (Sigma Aldrich, St. Louis, MO), and Primocin (Invivogen, San Diego, CA). The canine DLBCL cell line CLBL1 obtained from Dr. Barbara Rütgen (University of Vienna, Austria), [29] and human DLBCL cell lines OCI-Ly3 [30], [31] and OCI-Ly10 [32] obtained from Dr. Anne Novak (Mayo Clinic Cancer Center, Rochester, MN) were cultured in complete Iscove’s Modified Dulbecco’s medium (IMDM) containing 20% FBS, L-glutamine, and Primocin. All cells were maintained at 37°C in a humidified 5% CO2 atmosphere. The following additional canine tumor cell lines were used to evaluate response to SINE compounds: C2, mast cell tumor line provided by Dr. George Caughey, UCSF, San Francisco, CA [33]; OSA16, osteosarcoma cell line, provided by Dr. Jaime Modiano, UM, Minneapolis, MN [34]; and 323610-3, malignant melanoma cell line, provided by Dr. Michael Kent, UCD, Davis, CA [35]. All cell lines were cultured in complete RPMI media containing 10% FBS, antibiotic/antimycotic, HEPES, sodium pyruvate, nonessential amino acids and Glutamax (media supplements from Gibco).
# Cell viability for lymphoid lines was determined by the MTS (3-(4, 5-dimethylthiazol-2-yl)-5-(3-carboxymethoxyphenyl)-2-(4-sulfophenyl)-2H-tetrazolium) assay using CellTiter 96® AQueous One Solution Cell Proliferation Assay Kit (Promega, Madison, WI). Briefly, for lymphoid cell lines, 5×10^4 cells (or 1×10^5 primary DLBCL cells) were cultured in 100 µL of complete medium in 96-well plates in the presence of SINE compounds. After 72 hours, 20 µL of MTS solution was added to each well and cells were incubated for another 4 hours before measuring absorbance at 490 nm using a Wallac Victor 1420 Multilabel Counter (Perkin Elmer, Waltham, MA). The IC50 of SINE was calculated using Prism 6 software (GraphPad Software, Inc., La Jolla, CA).
# [3] = system: XPO1; test: XPO1 inhibition activity; type: biochemical
# [4] = Oral bioavailability; type: in vivo; conditions: in vivo, po
# [5] = system: OCI-Ly3 DLBCL cells; test: MTS cell viability assay, OCI-Ly3; type: cell-based, human; conditions: 72 hours, read-out: IC50 (± S.D.), OCI-Ly3
# Description: (§2) Cryopreserved tumor cells obtained from sterile lymph node biopsy samples from dogs with diffuse large B cell lymphoma (DLBCL) were cultured with 100 ng/mL of megaCD40L (Enzo Life Science, Plymouth Meeting, PA) as previously described, [27]. The human T-cell leukemia cell line, Jurkat, was from the American Type Culture Collection (ATCC, Manassas, VA) and cultured in RPMI1640 medium (Gibco/BRL, Grand Island, NY) containing 10% fetal bovine serum (FBS; Atlas Biologicals, Fort Collins, CO), 2-mercaptoethanol (Gibco/BRL), HEPES, L-glutamine, sodium pyruvate (Mediatech Inc., Manassas, VA), non-essential amino acids (Sigma Aldrich, St. Louis, MO), and Primocin (Invivogen, San Diego, CA). […]
# as §1
# [6] = system: OCI-Ly10 DLBCL cells; test: MTS cell viability assay, OCI-Ly10; type: cell-based, human; conditions: 72 hours, read-out: IC50 (± S.D.), OCI-Ly10
# Description: as §2, §1
# [7] = primary sample #5, 72 hours, read-out: IC50, DLBCL#5
Compound,IC50 [1],"IC50 [2, 7]","XPO1 inhibition activity, fold less than the cis-isomer [3]","IC50 ([2]; mean of primary canine DLBCL samples (n = 6), 72 hours, read-out: IC50 (± S.D.), Canine DLBCLs)","IC50 ([2]; primary sample #1, 72 hours, read-out: IC50, DLBCL#1)","IC50 ([2]; primary sample #2, 72 hours, read-out: IC50, DLBCL#2)","IC50 ([2]; primary sample #3, 72 hours, read-out: IC50, DLBCL#3)","IC50 ([2]; primary sample #4, 72 hours, read-out: IC50, DLBCL#4)",oral bioavailability [4],IC50 [5],IC50 [6]
COc1cc(-c2ncn(/C=C/C(=O)OC(C)C)n2)cc(C(F)(F)F)c1 [KPT-185 trans],> 1000 nM,> 1000 nM,~100 fold,,,,,,,,
COc1cc(-c2ncn(/C=C\C(=O)OC(C)C)n2)cc(C(F)(F)F)c1 [KPT-185],8.7 ± 0.7 nM,21.6 nM,,13.3 ± 6.2 nM,13.1 nM,9 nM,12.2 nM,4.9 nM,limited oral bioavailability,24.1 nM,246 nM
